From PubChem BioAssay (NCI) come the findings set out here.

Molecules are shown by their SMILES.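 Dose response: 5 concentrations. Exposure: 48 h. Format: 96-well plates. Endpoint: linear interpolation; highest concentration if not reached. Here, GI50 denotes the concentration required for 50% inhibition of growth. TGI is the concentration that stops growth completely.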

Test in all cases: NCI tumour cell line growth inhibition, 48 h
For test [1], the system named is 786-0 renal.
The test system of test [2] is ACHN renal.
Test [3] deals with EKVX NSCLC.
The test system of test [4] is MALME-3M melanoma.
In test [5] the test system is SK-MEL-2 melanoma.
Test [6] concerns SK-OV-3 ovarian.
Test [7] has as its system SN12C renal.
The subject of test [8] is SW-620 colon.
In test [9] the test system is TK-10 renal.
In test [10] the test system is UACC-62 melanoma.

Consider `COc1cc(Nc2ncc(-c3ccccc3)o2)cc(OC)c1OC`, for which the GI50 in test [1] was 5.13 µM; in test [2], 1.18 µM; in test [3], > 6.86 µM; in test [4], 6.29 µM; in test [5], 1.52 µM; in test [6] it was 2.89 µM. Moreover, the GI50 in test [7] was 6.35 µM; in test [8] it was 0.986 µM; in test [9], 1.62 µM; in [10], 2.24 µM. Also, the TGI was > 25 µM in [1]; > 25 µM in [2]; > 25 µM in [3]; > 25 µM in [4]; > 11.6 µM in test [5]; > 25 µM in test [6]. Also, the TGI in test [7], in test [8], in [9] and in [10] was > 25 µM each time.

As to `CCc1ccc(/C=C2/SC(=S)NC2=O)cc1`, the GI50 in test [1] is 22.6 µM; in test [2], 27.2 µM; in test [3], 21.9 µM; in test [4], 23.2 µM; in [5] it was 16.4 µM; in [6], 24.6 µM. The GI50 was 20.3 µM in test [7], 27.2 µM in test [8], 23.4 µM in test [9] and 12.3 µM in [10]. Besides, the TGI in test [1] was 81.3 µM; in test [2], > 100 µM; in [3], 73.2 µM; in test [4] it was > 80.6 µM; in [5] it was 41.3 µM; in [6] it was 74.9 µM. Besides, the TGI in test [7] was 81.4 µM; in [8] it was > 100 µM; in [9] it was > 85.4 µM; in test [10], 28.9 µM.

Take `COc1cc(C(=O)c2c(-c3ccccc3)oc3ccccc23)cc(OC)c1O`: the GI50 in test [1] is 4.15 µM; in [2], 4.49 µM; in test [3], 3.85 µM; in test [4], 1.13 µM; in [5], 6.78 µM; in test [6], 6.24 µM. In addition, the GI50 was 5.23 µM in test [7], 0.96 µM in test [8], 20.5 µM in test [9] and 0.975 µM in test [10]. In addition, the TGI in [1] amounted to 17 µM; in test [2], 41.1 µM; in test [3], 58.2 µM; in [4], 20.5 µM; in [5], 29.2 µM; in test [6], 52.1 µM. Moreover, the TGI in test [7] was 26.3 µM; in test [8] it was 26.9 µM; in test [9], > 100 µM; in test [10] it was 16 µM.

For `O=C(/C=C/c1cccs1)Nc1ncc(Cc2ccccc2F)s1`, the GI50 in [1] was 0.59 µM; in [2], 0.462 µM; in [3], 0.412 µM; in test [4] it was 0.359 µM; in test [5], 0.518 µM; in test [6], 0.477 µM. Further, the GI50 is 0.633 µM in test [7], 0.159 µM in [8] and 0.207 µM in [10]. Moreover, the TGI in [1], in test [2], in test [3], in test [4], in [5] and in test [6] was > 100 µM throughout. Also, the TGI in test [7], in test [8], in test [9] and in [10] was > 100 µM each time.

With `Nc1ccccc1C#Cc1ccccc1C#CCCCCO`, the GI50 was 16 µM in test [1]; 24.7 µM in test [2]; 29.1 µM in [3]; 12.4 µM in test [4]; 28.4 µM in test [5]; > 100 µM in test [6]. Also, the GI50 was 2.8 µM in [7], 25.1 µM in test [8], 27.5 µM in [9] and 11.9 µM in [10]. The TGI is 37.7 µM in test [1]; 59 µM in test [2]; 96.7 µM in [3]; 44.4 µM in test [4]; > 100 µM in test [5]; > 100 µM in test [6]. Also, the TGI is 9.49 µM in [7], 77.3 µM in [8], 91.5 µM in test [9] and 32.5 µM in test [10].

Turning to `C=C(C)[C@@H]1CC[C@]2(C#N)CC[C@]3(C)[C@H](CC[C@@H]4[C@@]5(C)CCCNC(C)(C)[C@@H]5CC[C@]43C)[C@@H]12`, the GI50 in test [1] was 1.69 µM; in [2], 1.83 µM; in test [3], 1.79 µM; in test [4], 1.61 µM; in [5] it was 2.1 µM; in test [6], 11.1 µM. The GI50 in test [7] is 1.77 µM; in test [8], 1.77 µM; in test [9], 2.04 µM; in [10], 1.96 µM. Besides, the TGI amounted to 3.07 µM in [1]; 3.22 µM in [2]; 3.83 µM in [3]; 3.2 µM in test [4]; 3.94 µM in test [5]; 25.4 µM in test [6]. For the same molecule, the TGI came to 3.25 µM in [7], 3.42 µM in test [8], 4.54 µM in test [9] and 3.6 µM in [10].

With `COc1ccccc1OCC(COC(=O)Nc1ccc(C)cc1)OC(=O)Nc1ccc(C)cc1` (centres undefined), the TGI in [1] came out at 44 µM; in test [2], 67.7 µM; in [3] it was 65.8 µM; in test [4] it was 48.3 µM; in test [5], 31.4 µM; in test [6] it was 47.8 µM. Also, the TGI in [7] amounted to 42.3 µM; in [8] it was 28.1 µM; in test [9] it was 47 µM; in test [10] it was 30.6 µM.

Regarding `O=C(N/N=C\c1cc(Cl)ccc1O)N/N=C/c1cc(Cl)ccc1O`, the GI50 was > 100 µM in test [1]; 1.17 µM in [2]; 7.83 µM in [3]; 34.3 µM in test [4]; > 100 µM in test [5]; > 100 µM in test [6]. For the same molecule, the GI50 in test [7] is > 100 µM; in test [8] it was 0.807 µM; in test [9], > 100 µM; in test [10], 0.918 µM. Further, the TGI in [1], in [2], in [3], in test [4], in test [5] and in test [6] was > 100 µM each time. Further, the TGI in [7], in test [8], in test [9] and in test [10] was > 100 µM throughout.
